Each compound was assayed against T1, Interstitial collagenase (Homo sapiens, UniProt P03956) (assay: Inhibition of human fibroblast collagenase).
T1 sequence (P03956 whole entry): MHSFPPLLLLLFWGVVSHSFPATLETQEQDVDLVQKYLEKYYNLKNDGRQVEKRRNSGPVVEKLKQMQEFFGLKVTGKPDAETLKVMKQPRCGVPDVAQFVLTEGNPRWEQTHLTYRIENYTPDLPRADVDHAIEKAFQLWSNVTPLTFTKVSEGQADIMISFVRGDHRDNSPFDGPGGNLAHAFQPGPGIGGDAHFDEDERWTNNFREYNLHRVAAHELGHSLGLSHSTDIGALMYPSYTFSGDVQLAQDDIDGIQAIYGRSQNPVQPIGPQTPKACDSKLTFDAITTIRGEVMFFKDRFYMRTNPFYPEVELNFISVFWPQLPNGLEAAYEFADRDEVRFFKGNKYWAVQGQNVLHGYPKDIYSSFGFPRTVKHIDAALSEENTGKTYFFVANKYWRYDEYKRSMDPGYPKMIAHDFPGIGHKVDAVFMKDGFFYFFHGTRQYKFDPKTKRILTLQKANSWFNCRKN
For `CNC(=O)[C@H](CC(C)C)NC(=O)[C@H](CC(C)C)CP(=O)(O)CNC(C)=O`, the IC50 was 37000 nM.
Work on `CNC(=O)[C@H](Cc1ccccc1)NC(=O)[C@H](CC(C)C)NC(CCN1C(=O)c2ccccc2C1=O)P(=O)(O)O` (stereo not given in full) yielded an IC50 of 360 nM.
`CNC(=O)[C@H](Cc1ccccc1)NC(=O)[C@H](CC(C)C)N[C@H](CCN1C(=O)c2cccc3cccc(c23)C1=O)P(=O)(O)O` showed an IC50 of 150 nM.
Compound `CNC(=O)[C@H](Cc1ccccc1)NC(=O)[C@H](CC(C)C)NC(CCN1C(=O)c2cccc3cccc(c23)C1=O)[PH](=O)O` (stereo not given in full) has an IC50 of over 100000 nM.
For `CNC(=O)[C@H](Cc1ccccc1)NC(=O)[C@H](CC(C)C)N[C@@H](CCN1C(=O)c2cccc3cccc(c23)C1=O)P(=O)(O)O`, the IC50 was 30 nM.
In the case of `CNC(=O)[C@H](Cc1ccccc1)NC(=O)[C@H](CC(C)C)N[C@@H](CCN1C(=O)c2cccc3c(Br)ccc(c23)C1=O)P(=O)(O)O`, the IC50 is reported as 20 nM.
`CNC(=O)[C@H](Cc1ccccc1)NC(=O)[C@H](CC(C)C)NC(CCCN1C(=O)c2cccc3cccc(c23)C1=O)P(=O)(O)O` (stereo not given in full) was tested, and the IC50 was 730 nM.
Work on `CNC(=O)[C@H](Cc1ccccc1)NC(=O)[C@H](CC(C)C)N[C@H](CCN1C(=O)c2cccc3c(Br)ccc(c23)C1=O)P(=O)(O)O` yielded an IC50 of 1630 nM.
`CNC(=O)[C@H](Cc1ccccc1)NC(=O)[C@H](CC(C)C)NC(CN1C(=O)c2cccc3cccc(c23)C1=O)P(=O)(O)O` (stereo not given in full) showed an IC50 of 2120 nM.
`CNC(=O)[C@H](Cc1ccccc1)NC(=O)[C@H](CC(C)C)N[C@@H](CCN1C(=O)c2ccccc2C1=O)P(=O)(O)O` gave an IC50 of 190 nM.
